According to the supplement of paper PMC11451515:

Tested on: P12-Ichikawa
Assay: cell viability relative to DMSO control; higher = less cytotoxic
Settings: 48 h
Summary of the method: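 Leukemia cells (NOMO1 or SEM, 500 cells/well; P12-Ichikawa, 1000 cells/well) were seeded in 5 μl in 1536-well plates after at least four passages of adaptation to each medium. They received library compounds in DMSO by pin dosing, 11 threefold points from 47 μM to 0.79 nM. Luminescence with CellTiter-Glo One was read after 48 h at 37°C. Viability is stated per plate relative to DMSO wells, with cell-free wells as background.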

[1] = HPLM + 10% dialyzed FBS, 0.000781 µM
[2] = HPLM + 10% dialyzed FBS, 0.00234 µM
[3] = HPLM + 10% dialyzed FBS, 0.00702 µM
[4] = HPLM + 10% dialyzed FBS, 0.0211 µM
[5] = HPLM + 10% dialyzed FBS, 0.0632 µM
[6] = HPLM + 10% dialyzed FBS, 0.19 µM
[7] = HPLM + 10% dialyzed FBS, 0.569 µM
[8] = HPLM + 10% dialyzed FBS, 1.71 µM
[9] = HPLM + 10% dialyzed FBS, 5.12 µM
[10] = HPLM + 10% dialyzed FBS, 15.4 µM
[11] = HPLM + 10% dialyzed FBS, 46.1 µM
[12] = RPMI 5 mM glucose + 10% FBS, 0.000781 µM
[13] = RPMI 5 mM glucose + 10% FBS, 0.00234 µM
[14] = RPMI 5 mM glucose + 10% FBS, 0.00702 µM
[15] = RPMI 5 mM glucose + 10% FBS, 0.0211 µM
[16] = RPMI 5 mM glucose + 10% FBS, 0.0632 µM
[17] = RPMI 5 mM glucose + 10% FBS, 0.19 µM
[18] = RPMI 5 mM glucose + 10% FBS, 0.569 µM
[19] = RPMI 5 mM glucose + 10% FBS, 1.71 µM
[20] = RPMI 5 mM glucose + 10% FBS, 5.12 µM
[21] = RPMI 5 mM glucose + 10% FBS, 15.4 µM
[22] = RPMI 5 mM glucose + 10% FBS, 46.1 µM
[23] = RPMI 5 mM glucose + 10% dialyzed FBS, 0.000781 µM
[24] = RPMI 5 mM glucose + 10% dialyzed FBS, 0.00234 µM
[25] = RPMI 5 mM glucose + 10% dialyzed FBS, 0.00702 µM
[26] = RPMI 5 mM glucose + 10% dialyzed FBS, 0.0211 µM
[27] = RPMI 5 mM glucose + 10% dialyzed FBS, 0.0632 µM
[28] = RPMI 5 mM glucose + 10% dialyzed FBS, 0.19 µM
[29] = RPMI 5 mM glucose + 10% dialyzed FBS, 0.569 µM
[30] = RPMI 5 mM glucose + 10% dialyzed FBS, 1.71 µM
[31] = RPMI 5 mM glucose + 10% dialyzed FBS, 5.12 µM
[32] = RPMI 5 mM glucose + 10% dialyzed FBS, 15.4 µM
[33] = RPMI 5 mM glucose + 10% dialyzed FBS, 46.1 µM

| SMILES | cell viability [1] [%] | cell viability [2] [%] | cell viability [3] [%] | cell viability [4] [%] | cell viability [5] [%] | cell viability [6] [%] | cell viability [7] [%] | cell viability [8] [%] | cell viability [9] [%] | cell viability [10] [%] | cell viability [11] [%] | cell viability [12] [%] | cell viability [13] [%] | cell viability [14] [%] | cell viability [15] [%] | cell viability [16] [%] | cell viability [17] [%] | cell viability [18] [%] | cell viability [19] [%] | cell viability [20] [%] | cell viability [21] [%] | cell viability [22] [%] | cell viability [23] [%] | cell viability [24] [%] | cell viability [25] [%] | cell viability [26] [%] | cell viability [27] [%] | cell viability [28] [%] | cell viability [29] [%] | cell viability [30] [%] | cell viability [31] [%] | cell viability [32] [%] | cell viability [33] [%] |
| --- | --- | --- | --- | --- | --- | --- | --- | --- | --- | --- | --- | --- | --- | --- | --- | --- | --- | --- | --- | --- | --- | --- | --- | --- | --- | --- | --- | --- | --- | --- | --- | --- | --- |
| OC[C@H]1O[C@@H](O[C@@H]2[C@@H](CO)O[C@](O)(CO)[C@H]2O)[C@H](O)[C@@H](O)[C@H]1O | 98.3 | 104 | 95.2 | 105 | 110 | 97 | 101 | 97.8 | 88.8 | 71.1 | 93.4 | 93.4 | 97.2 | 97 | 98.2 | 100 | 96.4 | 99 | 89.8 | 94.5 | 65.2 | 93.6 | 90.9 | 93 | 92.8 | 99.5 | 100 | 98.5 | 105 | 91.5 | 86 | 62.2 | 77.9 |
| CC[C@H](CC[C@@H](C)[C@H]1CC[C@H]2[C@@H]3C\C=C/4C[C@@H](O)CC[C@]4(C)[C@H]3CC[C@]12C)C(C)C | 117 | 111 | 123 | 119 | 112 | 111 | 111 | 110 | 99.4 | 103 | 75.9 | 112 | 119 | 120 | 121 | 120 | 118 | 111 | 107 | 106 | 108 | 92.2 | 110 | 118 | 110 | 107 | 108 | 110 | 109 | 103 | 103 | 105 | 93.1 |
| CN(C)CCOc1cc(-c2cn[nH]c2)ccc1NC(=O)C1COc2ccccc2O1 (centres undefined) | 105 | 112 | 103 | 107 | 114 | 117 | 110 | 104 | 98.7 | 95.3 | 95.3 | 107 | 113 | 115 | 112 | 117 | 118 | 128 | 113 | 107 | 88.8 | 84.1 | 105 | 122 | 123 | 116 | 122 | 125 | 128 | 118 | 109 | 95.8 | 97.2 |
| CC1(C)CC(=O)c2c(C(F)(F)F)nn(-c3ccc(C(N)=O)c(NC4CCC(O)CC4)c3)c2C1 (centres undefined) | 90.3 | 87.3 | 85.5 | 82.4 | 90 | 67.1 | 42 | 33.7 | 36.1 | 36.6 | 80.9 | 84 | 93.5 | 85.6 | 77.6 | 82.2 | 48.2 | 32.1 | 25.6 | 27.6 | 28.1 | 84.5 | 84.2 | 81.9 | 81.9 | 73.1 | 80.8 | 44.3 | 28.7 | 30.4 | 25.5 | 27.8 | 73.7 |
| CC1(C)Cc2c(-c3ccccc3)c(-c3ccc(Cl)cc3)c(CC(=O)O)n2C1 | 120 | 118 | 117 | 122 | 118 | 110 | 107 | 112 | 105 | 103 | 95.6 | 115 | 112 | 118 | 118 | 110 | 107 | 111 | 110 | 97.8 | 99.6 | 83.5 | 106 | 108 | 115 | 102 | 107 | 102 | 106 | 104 | 103 | 98.1 | 86 |
| Cc1ccc(NC(=O)c2ccc(CN3CCN(C)CC3)cc2)cc1Nc1nc(-c2cccnc2)cs1 | 102 | 104 | 106 | 103 | 106 | 102 | 101 | 92.7 | 70.5 | 57 | 41.3 | 105 | 101 | 110 | 113 | 100 | 111 | 89.1 | 89.7 | 63 | 50.4 | 49.7 | 108 | 112 | 109 | 109 | 110 | 108 | 95.5 | 95.1 | 62.1 | 46.1 | 45.4 |
| O=NN(CCCl)C(=O)NCCCl | 87 | 94.8 | 108 | 103 | 103 | 114 | 100 | 101 | 102 | 104 | 95.2 | 83.3 | 97.9 | 100 | 96.3 | 109 | 100 | 97.2 | 93.6 | 103 | 99.3 | 98.6 | 87 | 95.8 | 104 | 99.7 | 106 | 99.7 | 94.6 | 100 | 97.2 | 102 | 100 |
| CC1(C)CCC[C@]2(C)[C@H]3CC(=O)O[C@]3(C)CC[C@@H]12 | 118 | 115 | 114 | 114 | 116 | 110 | 115 | 116 | 110 | 107 | 99.1 | 121 | 120 | 122 | 120 | 119 | 124 | 119 | 109 | 109 | 111 | 93.5 | 110 | 115 | 119 | 116 | 112 | 113 | 105 | 107 | 108 | 97.5 | 92.4 |
| c1cncc(CN2CCC(n3ncc4c(N5CCOCC5)nc(-c5ccc6[nH]ccc6c5)nc43)CC2)c1 | 96.5 | 99.9 | 98.8 | 97.5 | 105 | 92.2 | 91.8 | 88.5 | 83.9 | 64.8 | 46.1 | 77.9 | 89.7 | 95.4 | 87.9 | 91.6 | 84.9 | 76.1 | 75.7 | 63.5 | 32.6 | 9.35 | 86.5 | 92.9 | 89.5 | 91.7 | 91.5 | 81.7 | 78.6 | 74.6 | 69.9 | 31.7 | 5.49 |
| C/C=C(/C)C(=O)O[C@H]1C(C)=C2[C@H]([C@@H]1OC(=O)CCCCCCC)[C@@](C)(OC(C)=O)C[C@H](OC(=O)CCC)[C@@]1(O)[C@H]2OC(=O)[C@@]1(C)O | 103 | 114 | 111 | 109 | 104 | 71 | 38.5 | 51.5 | 67 | 69.8 | 75.2 | 120 | 129 | 107 | 125 | 96.8 | 66.4 | 22.1 | 23.8 | 46 | 48.2 | 42.4 | 109 | 121 | 123 | 112 | 95.7 | 52.6 | 13.3 | 8.27 | 16.7 | 20.3 | 22.7 |
| CC(=O)O[C@H]1C(=O)[C@]2(C)[C@@H](O)C[C@H]3OC[C@@]3(OC(C)=O)C2[C@H](OC(=O)C4=CC=CC=C4)[C@]5(O)C[C@H](OC(=O)[C@H](O)[C@@H](NC(=O)C6=CC=CC=C6)C7=CC=CC=C7)\C(=C1/C5(C)C)C (some centres undefined) | 93.3 | 42.1 | 35.2 | 27.6 | 31.9 | 27.8 | 25.7 | 27.1 | 25 | 19.1 | 15.3 | 88.3 | 48 | 34.3 | 24 | 26.1 | 24.8 | 27.8 | 23 | 26 | 19.3 | 14.3 | 95.8 | 58.3 | 41.4 | 31.5 | 37.7 | 39.7 | 35.9 | 38.8 | 37.7 | 31.9 | 25.9 |
| COc1ccc(-c2cc3nccn3c(Nc3ncccc3C(N)=O)n2)cc1OC | 103 | 112 | 110 | 112 | 113 | 119 | 117 | 115 | 116 | 114 | 109 | 97.4 | 109 | 105 | 111 | 111 | 109 | 97.4 | 104 | 114 | 107 | 96.5 | 99 | 111 | 111 | 105 | 110 | 115 | 116 | 90.9 | 114 | 101 | 102 |
| COC(=O)Nc1nc2cc(C(=O)c3cccs3)ccc2[nH]1 | 121 | 107 | 110 | 55.9 | 37 | 17.8 | 25.4 | 14.6 | 10.1 | 10.2 | 36.8 | 117 | 123 | 119 | 82 | 42.2 | 18.1 | 23.3 | 16.7 | 10.5 | 11.8 | 33.1 | 120 | 114 | 128 | 96.5 | 57.6 | 27.3 | 35 | 25.1 | 17.4 | 18.5 | 48 |
